Measurements published in paper PMC8653655, “The Design, Synthesis and Evaluation of Rho-kinase Inhibitory Activity of 4-aryl-thiazole-2-amines” (Iranian Journal of Pharmaceutical Research : IJPR, 2021).
Like-named read-outs stand apart in the source and are kept apart here.

Legend:
ROCK II = biological target: T1, ROCK II (Homo sapiens, UniProt O75116); assay: Enzyme-based ROCK II inhibitory activity assay (ELISA, Rho kinase assay kit CY-1160); format: biochemical; conditions: for inhibition at 10 µM: read-out: Inhibition of ROCKII (%); for IC50: read-out: IC50 against ROCK II
T1 construct: purchased Cycle, Nagoya, Japan CY-1160
Description: Enzyme-based ROCK II inhibitory activity studies
The enzyme-based ROCK II inhibitory activity assay was performed using the Rho kinase assay kit (CY-1160, Cycle, Nagoya, Japan). All operation was guided by the manufacturer’s instructions. Briefly, the compounds at 10 µM were pre-incubated in a system wherein ROCK II (0.02 ng/µL) phosphorylates the myosin-binding subunit (MBS) of kinase substrate pre-absorbed onto the microplate in the presence of Mg^2+ and ATP. Then, the system was washed after incubation at 30 ^◦C for 30 min. 100 µL of antibody was added to the wells and then incubated for 30 min at room temperature. 100 µL of substrate reagent and 100 µL stop solution were successively added to each well. The plates were read on the Viewlux in HTRF mode within 30 min.
All compounds were initially evaluated for their percentage inhibition against ROCK II with a ROCK II assay kit (CY-1160, Cycle, Japan).

ROCK = tested on: ROCK; design: method as in PMID 18638453; conditions: compared with its in-vitro enzyme-based ROCK II activity; cited from earlier work
[1] = undesired pharmacokinetic properties, not suitable for non-topical administration; cited from earlier work
[2] = full concentration-response plots

T1 sequence (O75116 whole entry): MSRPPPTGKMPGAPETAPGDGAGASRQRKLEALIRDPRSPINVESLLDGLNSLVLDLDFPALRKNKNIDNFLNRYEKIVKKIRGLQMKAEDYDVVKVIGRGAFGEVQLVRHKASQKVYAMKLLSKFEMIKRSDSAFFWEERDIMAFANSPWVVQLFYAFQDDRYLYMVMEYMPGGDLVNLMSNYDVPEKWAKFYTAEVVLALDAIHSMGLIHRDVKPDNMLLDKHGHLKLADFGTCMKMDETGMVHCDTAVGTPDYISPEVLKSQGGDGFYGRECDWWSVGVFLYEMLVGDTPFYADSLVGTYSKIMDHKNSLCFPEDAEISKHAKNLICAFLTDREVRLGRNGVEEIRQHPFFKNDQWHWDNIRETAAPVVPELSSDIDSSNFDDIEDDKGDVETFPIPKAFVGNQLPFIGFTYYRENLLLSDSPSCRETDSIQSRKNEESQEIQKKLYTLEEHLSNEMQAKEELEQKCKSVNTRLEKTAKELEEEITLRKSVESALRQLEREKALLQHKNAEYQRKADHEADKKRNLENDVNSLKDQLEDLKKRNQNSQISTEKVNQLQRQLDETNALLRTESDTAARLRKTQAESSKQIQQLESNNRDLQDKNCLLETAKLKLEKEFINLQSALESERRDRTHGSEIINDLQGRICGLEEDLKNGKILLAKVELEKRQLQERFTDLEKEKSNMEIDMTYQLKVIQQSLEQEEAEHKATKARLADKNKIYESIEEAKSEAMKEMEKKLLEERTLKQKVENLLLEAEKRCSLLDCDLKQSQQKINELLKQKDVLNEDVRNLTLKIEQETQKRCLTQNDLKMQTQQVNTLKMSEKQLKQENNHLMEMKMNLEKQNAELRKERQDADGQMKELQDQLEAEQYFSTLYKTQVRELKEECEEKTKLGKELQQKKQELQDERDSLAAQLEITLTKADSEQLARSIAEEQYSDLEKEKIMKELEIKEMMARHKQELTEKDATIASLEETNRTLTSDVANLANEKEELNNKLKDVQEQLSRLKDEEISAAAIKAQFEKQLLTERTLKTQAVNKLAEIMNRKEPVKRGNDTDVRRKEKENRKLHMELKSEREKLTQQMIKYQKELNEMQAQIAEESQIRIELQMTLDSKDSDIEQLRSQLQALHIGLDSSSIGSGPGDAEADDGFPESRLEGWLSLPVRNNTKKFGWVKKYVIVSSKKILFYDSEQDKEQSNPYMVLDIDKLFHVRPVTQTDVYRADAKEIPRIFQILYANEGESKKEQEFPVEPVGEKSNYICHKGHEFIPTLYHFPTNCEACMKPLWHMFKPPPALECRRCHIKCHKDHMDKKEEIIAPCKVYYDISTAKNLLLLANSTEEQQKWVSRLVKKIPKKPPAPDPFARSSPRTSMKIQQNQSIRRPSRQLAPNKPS

Molecule	melting point [°C]	inhibition at 10 µM (ROCK II; compound concentration 10 µM) [%]	IC50 (ROCK II; [2]) [nM]	further results
O=C(Nc1nc(-c2cccnc2)c(CN2CCOCC2)s1)C1COc2ccccc2O1 (stereo not shown) [4l, N-(5-(morpholinomethyl)-4-(pyridin-3-yl)thiazol-2-yl)-2,3-dihydrobenzo[b] [1,4] dioxine-2-carboxamide]	177 to 179	73.8	1020 ± 70	
CN1CCN(Cc2sc(NC(=O)c3ccc(Cl)c(Cl)c3)nc2-c2cccnc2)CC1 [4e, 3,4-Dichloro-N-(5-((4-methylpiperazin-1-yl)methyl)-4-(pyridin-3-yl)thiazol-2-yl) benzamide]	179 to 181	27.9		
O=C(Nc1nc(-c2cccnc2)c(CN2CCOCC2)s1)c1ccc(Cl)c(Cl)c1 [4d, 3,4-Dichloro-N-(5-(morpholinomethyl)-4-(pyridin-3-yl)thiazol-2-yl) benzamide]	208 to 210	42.9		
Cc1ccc(C(=O)Nc2nc(-c3ccncc3)c(CN3CCOCC3)s2)cc1 [4m, 4-Methyl-N-(5-(morpholinomethyl)-4-(pyridin-4-yl)thiazol-2-yl) benzamide]	148 to 149	48.6		
N-(5-((4-Methylpiperazin-1-yl) methyl)-4- (pyridin-4-yl) thiazol-2-yl) isonicotinamide [4q]				Inhibition of ROCKII (%) (ROCK II; compound concentration 10 µM): 48.2%
O=C(Nc1nc(-c2cccnc2)c(CN2CCOCC2)s1)c1ccncc1 [4i, N-(5-(morpholinomethyl)-4-(pyridin-3-yl)thiazol-2-yl) isonicotinamide]	185 to 187	51.1	9830 ± 1450	
CN(C)Cc1sc(NC(=O)C2COc3ccccc3O2)nc1-c1cccnc1 (stereo not shown) [4j, N-(5-((dimethylamino)methyl)-4-(pyridin-3-yl)thiazol-2-yl)-2,3-dihydrobenzo[b] [1,4] dioxine-2-carboxamide]	192 to 196	68.1	960 ± 120	
CN(C)CCOc1cc(-c2cn[nH]c2)ccc1NC(=O)[C@H]1Cc2ccccc2CN1 [I]				bioavailability [1]: low bioavailability; clearance [1]: high clearance
CC(C)N(C)Cc1sc(NC(=O)c2ccc(Cl)c(Cl)c2)nc1-c1cccnc1 [4f, 3,4-Dichloro-N-(5-((i-propyl(methyl)amino)methyl)-4-(pyridin-3-yl)thiazol-2-yl) benzamide]	171 to 172	34.6		
Cc1ccc(C(=O)Nc2nc(-c3cccnc3)c(CN(C)C(C)C)s2)cc1 [4c, N-(5-((i-Propyl(methyl)amino)methyl)-4-(pyridin-3-yl)thiazol-2-yl)-4-methylbenzamide]		32.8		
Cc1ccc(C(=O)Nc2nc(-c3cccnc3)c(CN3CCOCC3)s2)cc1 [4a, 4-Methyl-N-(5-(morpholinomethyl)-4-(pyridin-3-yl)thiazol-2-yl) benzamide]	198 to 199	46.3		
Cc1ccc(C(=O)Nc2nc(-c3cccnc3)c(CN3CCN(C)CC3)s2)cc1 [4b, 4-Methyl-N-(5-((4-methylpiperazin-1-yl)methyl)-4-(pyridin-3-yl)thiazol-2-yl) benz-amide]	180 to 182	32.7		
CN(C)Cc1sc(NC(=O)c2ccncc2)nc1-c1cccnc1 [4h, N-(5-((dimethylamino)methyl)-4-(pyridin-3-yl)thiazol-2-yl) isonicotinamid]	201 to 202	35.3		
O=C(Nc1nc(-c2cccnc2)c(CN2CCCC2)s1)C1COc2ccccc2O1 (stereo not shown) [4k, N-(4-(pyridin-3-yl)-5-(pyrrolidin-1-ylmethyl)thiazol-2-yl)-2,3-dihydrobenzo[b] [1,4] dioxine-2-carboxamide]	181 to 182	61.3	1560 ± 230	
Cc1ccc(C(=O)Nc2nc(-c3ccncc3)c(CN3CCN(C)CC3)s2)cc1 [4n, 4-Methyl-N-(5-((4-methylpiperazin-1-yl)methyl)-4-(pyridin-4-yl)thiazol-2-yl) benzamide]	148 to 150	42.4		
CN1CCN(Cc2sc(NC(=O)c3ccccc3)nc2-c2cccnc2)CC1 [4g, N-(5-((4-Methylpiperazin-1-yl)methyl)-4-(pyridin-3-yl)thiazol-2-yl) benzamide]	198 to 199	29.6		

Second part, led by results:

melting point [°C]	inhibition at 10 µM (ROCK II; compound concentration 10 µM) [%]	IC50 (ROCK II; [2]) [nM]	Molecule	further results
192 to 195	47.6		O=C(Nc1nc(-c2ccncc2)c(CN2CCCC2)s1)c1ccncc1 [4r, N-(4-(Pyridin-4-yl)-5-(pyrrolidin-1-ylmethyl)thiazol-2-yl) isonicotinamide]	
178 to 180	52.2	9120 ± 2460	O=C(Nc1nc(-c2ccncc2)c(CN2CCOCC2)s1)c1cccnc1 [4t, N-(5-(Morpholinomethyl)-4-(pyridine-4-yl)thiazol-2-yl) nicotinamide]	
175 to 178	58.1	8560	O=C(Nc1nc(-c2ccncc2)c(CN2CCOCC2)s1)c1ccncc1 [4s, N-(5-(morpholinomethyl)-4-(pyridin-4-yl)thiazol-2-yl) isonicotinamide]	
	91.3	10 ± 3	O=C(Nc1nc(-c2ccncc2)cs1)C1COc2ccccc2O1 (stereo not shown) [II, reference compound]	potency in a cell-based assay (ROCK): much less potent
169 to 171	38.1		O=C(Nc1nc(-c2ccncc2)c(CN2CCCCC2)s1)c1cccnc1 [4u, N-(5-(Piperidin-1-ylmethyl)-4-(pyridin-4-yl)thiazol-2-yl) nicotinamide]	
163 to 164	43.5		O=C(Nc1nc(-c2ccncc2)c(CN2CCOCC2)s1)c1ccc(Cl)c(Cl)c1 [4p, 3,4-Dichloro-N-(5-(morpholinomethyl)-4-(pyridin-4-yl)thiazol-2-yl) benzamide]	
201 to 203	44.8		CN1CCN(Cc2sc(NC(=O)c3ccc(Cl)c(Cl)c3)nc2-c2ccncc2)CC1 [4o, 3,4-Dichloro-N-(5-((4-methylpiperazin-1-yl)methyl)-4-(pyridin-4-yl)thiazol-2-yl) benzamide]	
178 to 180	84.4	20	O=C(Nc1nc(-c2ccncc2)c(CN2CCOCC2)s1)C1COc2ccccc2O1 (stereo not shown) [4v, N-(5-(morpholinomethyl)-4-(pyridin-4-yl)thiazol-2-yl)-2,3-dihydrobenzo[b] [1,4] dioxine-2-carboxamide]	IC50 (ROCK II; value stated in text in nM): 20 nM
